These results are taken from patent US20180334540A1, “Polymeric Derivative Of Macrolide Immunosuppressant” (Nippon Kayaku Kabushiki Kaisha, priority 2015, published 2018).

Data set [1] can be described thus: Blood concentration profile in rats. Type of data set: in vivo. The conditions noted are these: female, SD, whole blood, iv, tacrolimus in rat blood, 5 mg/kg once i.v. caudal vein, Examples: tacrolimus cut out from micelles. The text has this: Blood Concentration Profile in Rats
The results for Examples 1 to 4 and tacrolimus are presented in FIG. 3, and the results for Examples 5 to 8 and tacrolimus are presented in FIG. 4.

Data set [2] relates to rats. The conditions noted are these: cited from earlier work.
In data set [3] the test system is DA rats. The data set is described as follows: Test on single-dose toxicity in rats.
Description: (§1) Female DA rats (Japan SLC, Inc.) were intravenously administered through the caudal vein with tacrolimus or Example 1, each once in the dosage indicated in Table 4 and Table 5, and an observation of general symptoms was made successively.
Data set [4] concerns DA rats. The following applies: rat, in vivo, iv, 20 mg/kg.
Description: as §1

The structures appear in SMILES notation.

Regarding `C=CC[C@@H]1/C=C(\C)C[C@H](C)C[C@H](OC)[C@H]2O[C@@](O)(C(=O)C(=O)N3CCCC[C@H]3C(=O)O[C@H](/C(C)=C/[C@@H]3CC[C@@H](O)[C@H](OC)C3)[C@H](C)[C@@H](O)CC1=O)[C@H](C)C[C@@H]2OC` [Tacrolimus, tacrolimus], in data set [1], the AUC(0-inf) (usually total exposure, with the tail of the curve extrapolated) came out at 5400 ng·h/mL; the peak level (Cmax) was 2430 ng/mL; the MRT inf – broadly, the average time that molecules of a dose stay in the body – came out at 4.12 h; the Tmax (as a rule, the time at which the peak concentration occurs) was determined as 4.98 min. In addition, the half-life in data set [1] (read-out: T½ (converted)) was 7.51 h. Moreover, the “symptoms caused by intravenous administration” value in data set [2] is “slight respiratory distress, a decrease in locomotor activity, a prone position, stereotyped behavior”. Further, the “cerebral cortex pathology of dead rats” value in data set [3] (FIG. 7) is reported as “neuronal vacuolation was recognized”. Further, the lethal dose result in data set [3] (single i.v. dose, female DA rats) is recorded as “lower than 20 mg/kg”. Also, in data set [3] (single i.v. dose, tacrolimus 20 and 30 mg/kg, Example 1 20-50 mg/kg in terms of tacrolimus), the death entry is “half the animals in each group died”. In data set [4], the “general symptoms immediately after administration” value was “a prone position, sedation, and a decrease in locomotor activity”.
